Test results taken from PMC11845477, “Exploring the principles behind antibiotics with limited resistance” (Nature Communications, 2025).

Tested on: K. pneumoniae ATCC 10031 (SEN) and K. pneumoniae ATCC 700603 (MDR)
Experiment: Adaptive laboratory evolution (ALE), relative MIC of evolved lines
Type: cell-based, Klebsiella pneumoniae
Details: for Relative MIC: ALE
Description: Using the same set of bacterial strains, we initiated adaptive laboratory evolution with the aim to maximize the level of antibiotic resistance in the populations achieved during a longer, but fixed time period.
An established protocol for adaptive laboratory evolution[46],[73] was followed to propagate populations with the highest resistance levels. Starting with an antibiotic concentration that caused approximately 50% growth inhibition, ten parallel populations for each antibiotic-ancestor strain combination were grown for 72 hours at 37 °C with continuous shaking (300 RPM). MHB broth medium was used unless stated otherwise. After each incubation, 20 µl of each culture was transferred to four new wells containing fresh medium with increasing antibiotic concentrations (0.5×, 1×, 1.5×, and 2.5× the previous concentration) in a chessboard layout to monitor potential cross-contamination. Growth was monitored by measuring OD600 using a Biotek Synergy 2 microplate reader, and only populations grown in the highest drug concentration with an OD600 > 0.2 were transferred further.
A robotic liquid handling system was used to automatically prepare a 11 to 16-step serial dilution in 384-well microtiter plates (Greiner). A final concentration of 5 × 10^5 bacterial cells per mL were inoculated into each well containing 60 µL MHB medium. Bacterial cultures were incubated at 37 °C with continuous shaking (Infors shaker, 900 rpm with 3 mm throw) for 18 hours (2 replicates from each). Cell growth was monitored by measuring the optical density (OD600 values, using Biotek Synergy microplate reader). MIC was defined as the antibiotic concentration of complete growth inhibition (i.e., OD600 < 0.05). Relative MIC was calculated as follows:1 relativeMIC=MICevolved/MICancestor […]
Supplementary Figure 4. Resistance levels following adaptive laboratory evolution across bacterial strains. The level of resistance was measured as the fold change in relative MIC between evolved and ancestral strains after ~60 days of adaptive laboratory evolution. Data are grouped by bacterial strain (A. baumannii (AB), E. coli (EC), K. pneumoniae (KP), and P. aeruginosa (PA)) and categorized as either multidrug-resistant (MDR) or sensitive (SEN). Each data point represents a laboratory evolved line, and boxplots show the median, first and third quartiles, with whiskers indicating the 5th and 95th percentiles.
Statistical analysis was performed using two-sided Dunn’s post-hoc test with Benjamini-Hochberg correction for multiple comparisons (****/ ***/ **/ * indicates p < 0.0001/ 0.001/ 0.01/ 0.05). For detailed information on antibiotic and bacterial species, see Supplementary Table 1. For mode of action groups, refer to Table 1. Source data are provided as a Source Data file.

[1] = KP-SEN (K. pneumoniae ATCC 10031), evolved line 2 of the given antibiotic
[2] = KP-SEN (K. pneumoniae ATCC 10031), evolved line 4 of the given antibiotic
[3] = KP-SEN (K. pneumoniae ATCC 10031), evolved line 5 of the given antibiotic
[4] = KP-SEN (K. pneumoniae ATCC 10031), evolved line 7 of the given antibiotic
[5] = KP-SEN (K. pneumoniae ATCC 10031), evolved line 8 of the given antibiotic

POL7306
Relative MIC (Klebsiella pneumoniae ATCC 10031 (KP-SEN), evolved line 1): 1
Relative MIC (Klebsiella pneumoniae ATCC 10031 (KP-SEN), evolved line 4): 32
Relative MIC (Klebsiella pneumoniae ATCC 10031 (KP-SEN), evolved line 7): 1
Relative MIC (Klebsiella pneumoniae ATCC 10031 (KP-SEN), evolved line 8): 32
Relative MIC (Klebsiella pneumoniae ATCC 10031 (KP-SEN), evolved line 10): 64
Relative MIC (Klebsiella pneumoniae ATCC 700603 (KP-MDR), evolved line 1): 16
Relative MIC (Klebsiella pneumoniae ATCC 700603 (KP-MDR), evolved line 2): 256
Relative MIC (Klebsiella pneumoniae ATCC 700603 (KP-MDR), evolved line 3): 256
Relative MIC (Klebsiella pneumoniae ATCC 700603 (KP-MDR), evolved line 4): 256
Relative MIC (Klebsiella pneumoniae ATCC 700603 (KP-MDR), evolved line 5): 256
Relative MIC (Klebsiella pneumoniae ATCC 700603 (KP-MDR), evolved line 6): 256
Relative MIC (Klebsiella pneumoniae ATCC 700603 (KP-MDR), evolved line 8): 256
Relative MIC (Klebsiella pneumoniae ATCC 700603 (KP-MDR), evolved line 10): 16

Tridecaptin M152-P3
MIC of evolved line [1]: 32 µg/mL
MIC of evolved line [2]: 8 µg/mL
MIC of evolved line [3]: 64 µg/mL
MIC of evolved line (KP-SEN (K. pneumoniae ATCC 10031), evolved line 6 of the given antibiotic): 64 µg/mL
MIC of evolved line [4]: 64 µg/mL
MIC of evolved line [5]: 4 µg/mL

polymyxin-B
MIC of evolved line (KP-MDR ATCC 700603, evolved line 1): 512 µg/mL
MIC of evolved line (KP-MDR ATCC 700603, evolved line 2): 512 µg/mL
MIC of evolved line (KP-MDR ATCC 700603, evolved line 3): 256 µg/mL
MIC of evolved line (KP-MDR ATCC 700603, evolved line 4): 256 µg/mL
MIC of evolved line (KP-MDR ATCC 700603, evolved line 5): 256 µg/mL
MIC of evolved line (KP-MDR ATCC 700603, evolved line 6): 256 µg/mL
MIC of evolved line (KP-MDR ATCC 700603, evolved line 7): 256 µg/mL
MIC of evolved line (KP-MDR ATCC 700603, evolved line 8): 512 µg/mL
MIC of evolved line (KP-MDR ATCC 700603, evolved line 9): 256 µg/mL
MIC of evolved line (KP-MDR ATCC 700603, evolved line 10): 256 µg/mL
MIC of evolved line (KP-SEN (K. pneumoniae ATCC 10031), evolved line 1 of the given antibiotic): 512 µg/mL
MIC of evolved line [1]: 1020 µg/mL
MIC of evolved line (KP-SEN (K. pneumoniae ATCC 10031), evolved line 3 of the given antibiotic): 1020 µg/mL
MIC of evolved line [2]: 256 µg/mL
MIC of evolved line [3]: 1020 µg/mL
MIC of evolved line [4]: 256 µg/mL
MIC of evolved line [5]: 256 µg/mL
MIC of evolved line (KP-SEN (K. pneumoniae ATCC 10031), evolved line 9 of the given antibiotic): 1020 µg/mL
MIC of evolved line (KP-SEN (K. pneumoniae ATCC 10031), evolved line 10 of the given antibiotic): 32 µg/mL
